{
  "source": "patent US8597646B2",
  "about": "“Methods and compositons featuring TGF-beta antagonists for the treatment of marfan syndrome and associated disorders” (The Johns Hopkins University, priority 2005, dated 2013)",
  "format_in_all_cases": "in vivo, mouse",
  "key": {"[1]": {"tested_on": "TGFβ signaling (pSmad2/3, periostin)", "assay": "Immunofluorescence of TGFβ signaling markers (pSmad2/3, periostin, TSP1) in skeletal muscle of fibrillin-1 deficient mice", "description": "Immunofluorescent studies were performed as previously described (Cohn, R. D. et al. (2002) Cell 110, 639-48). […] The following antibodies were used in this study: goat polyclonal anti-pSmad 2/3, rabbit polyclonal anti c-met and rabbit polyclonal anti-myogenin (all from Santa Cruz Biotechnology Inc.); rabbit polyclonal anti-pSmad2 (#3104, Cell Signal) rat polyclonal anti-lamininyl, rabbit polyclonal anti-dystrophin, rabbit polyclonal antithrombospondin-1 and rabbit polyclonal anti-periostin (all from Abcam); rabbit polyclonal anti-fibrillin-1 (pAb 9543) (Judge, D. P. et al. (2004) J Clin Invest 114, 172-81); goat polyclonal anti-vimentin (Sigma) and, mouse monoclonal anti-beta-sarcoglycan mouse monoclonal anti-developmental myosin (Novocastra). Anti a-dystroglycan antibody IIH6 was generously supplied by Dr. Kevin Campbell, Iowa. Secondary Alexa fluor donkey anti-rabbit, anti-rat, anti mouse IgM and IgG1 and anti-goat conjugated antibodies (Molecular probes) were applied for 1 hour at room temperature. Nuclei were stained with DAPI for 5 minutes, and inverted coverslips were mounted onto glass slides using Cytoseal (Vector Laboratories).\nSkeletal muscle from Fbn1^C1039G/+ mice was assessed for increased TGFβ signaling by immunohistochemical staining for phosphorylated Smad2/3 (pSmad2/3). […]"}, "Fbn1mgR/mgR mice": {"tested_on": "Fbn1mgR/mgR mice", "assay": "Forelimb grip strength and fatigue in Fbn1mgR/mgR mice", "details": "5 months of losartan, untreated 28±2.5, wild-type 3±0.8", "description": "(§1) Mice were continued on oral therapy for 6 months and sacrificed. […] Age-matched wild-type and mdx mice (placebo-treated) served as a control group. After 6 months of treatment, forelimb and hindlimb grip strength was assessed using an automated grip strength meter (Columbus Instruments, Columbus, Ohio). The experiments for forelimb and hindlimb grip strength testing were conducted at different days allowing for a minimum recovery period of 10 days. Total peak force (in Newtons) was determined by an electronic strain gauge as previously described and corrected for body weight (Wagner, K. R., et al. (2002) Ann Neurol 52, 832-6). Five measurements within 2 minutes were taken from each animal. The three highest measurements for each animal were averaged to give the strength score. The degree of fatigue was calculated by comparing the first two pulls to the last two pulls with the decrement between pulls 1+2 and pulls 4+5 providing a measure of fatigue. Similarly, functional measurements were performed in 6 month old fibrillin-1 deficient mice (Fbn1^mgR) (Pereira, L. et al. (1997) Nat Genet. 17, 218-22) after 5 months of treatment."}, "mdx mice": {"tested_on": "mdx mice", "assay": "Forelimb and hindlimb grip strength and fatigue in mdx mice", "description": "as §1"}},
  "data": [
    {"smiles": "CCCCc1nc(Cl)c(CO)n1Cc1ccc(-c2ccccc2-c2nnn[nH]2)cc1.[K]", "note": "[losartan, 2-butyl-4-chloro-1-[p-(o-1H-tetrazol-5-ylphenyl)benzyl]imidazole-5-methanol monopotassium salt]", "values": [
      {"measurement": "Nuclear pSmad2/3 and sarcolemmal periostin in uninjured skeletal muscle", "setting": "[1]; Fbn1C1039G/+ mice, steady state", "result": "abrogation of TGFβ signaling"},
      {"measurement": "Expression of thrombospondin-1 (TSP1) and periostin in skeletal muscle", "setting": "[1]; losartan-treated fibrillin-1 deficient mice", "result": "Decreased expression"},
      {"measurement": "Fatigue", "setting": "Fbn1mgR/mgR mice", "result": "9%±1.8"},
      {"measurement": "Forelimb grip strength (peak force), male", "setting": "mdx mice; 6 months of losartan, untreated mdx 1.25±0.15", "result": "1.64±0.29", "unit": "N"},
      {"measurement": "Forelimb grip strength (peak force), female", "setting": "mdx mice; 6 months of losartan, untreated mdx 1.32±0.12", "result": "1.41±0.15", "unit": "N"},
      {"measurement": "Hindlimb grip strength (peak force), female", "setting": "mdx mice; 6 months of losartan, untreated mdx 1.39±0.14", "result": "1.79±0.14", "unit": "N"},
      {"measurement": "Hindlimb grip strength (peak force), male", "setting": "mdx mice; 6 months of losartan, untreated mdx 1.45±0.19", "result": "1.89±0.23", "unit": "N"},
      {"measurement": "Muscle fatigue, forelimb test, female", "setting": "mdx mice; 6 months of losartan, untreated mdx 34.7±5.7", "result": "15.2±6", "unit": "%"},
      {"measurement": "Muscle fatigue, forelimb test, male", "setting": "mdx mice; 6 months of losartan, untreated mdx 36.3±6.5", "result": "16.3±5", "unit": "%"},
      {"measurement": "Muscle fatigue, hindlimb test, female", "setting": "mdx mice; 6 months of losartan, untreated mdx 37.6±6", "result": "17.1±4", "unit": "%"},
      {"measurement": "Muscle fatigue, hindlimb test, male", "setting": "mdx mice; 6 months of losartan, untreated mdx 39.5±6", "result": "16.2%±5"},
      {"measurement": "Muscle fatigue in response to repetitive challenge, in words", "setting": "mdx mice; 6 months of treatment", "result": "significantly less muscle fatigue"},
      {"measurement": "Grip strength versus untreated mdx mice, in words", "setting": "mdx mice; 6 months of treatment, male and female", "result": "increased forelimb and hindlimb grip strength"}
    ]}
  ]
}
